The structures appear in SMILES notation.

In this test the target is Adenosylhomocysteinase (Homo sapiens) (UniProt P23526). The following applies: Bos taurus.
Sequence of Adenosylhomocysteinase (Homo sapiens) (P23526 2-432 limits assumed): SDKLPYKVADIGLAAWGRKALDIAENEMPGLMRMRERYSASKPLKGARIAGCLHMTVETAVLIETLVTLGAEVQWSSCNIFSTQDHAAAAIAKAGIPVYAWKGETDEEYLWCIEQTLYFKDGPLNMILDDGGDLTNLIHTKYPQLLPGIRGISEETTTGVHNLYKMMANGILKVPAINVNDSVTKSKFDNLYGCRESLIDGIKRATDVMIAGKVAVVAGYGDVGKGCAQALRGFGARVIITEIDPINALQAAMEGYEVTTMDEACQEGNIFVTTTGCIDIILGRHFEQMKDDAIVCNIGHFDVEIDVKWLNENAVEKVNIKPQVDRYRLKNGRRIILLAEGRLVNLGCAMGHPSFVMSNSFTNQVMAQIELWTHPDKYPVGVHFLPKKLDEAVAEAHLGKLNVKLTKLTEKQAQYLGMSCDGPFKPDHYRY

Description: NAD+ content of the enzyme tetramer was measured by HPLC on a C 18 reverse-phase column

The molecule `Nc1ncnc2c1ncn2[C@@H]1C=C(CO)[C@@H](O)[C@H]1O` showed an NAD content (M (M of enzyme)-1) of 0.
Turning to `Nc1ncnc2c1ncn2[C@@H]1C=C[C@@H](O)[C@H]1O`, the NAD content (M (M of enzyme)-1) worked out at 0.19.

(Values after ChEMBL document CHEMBL1124048, “9-(trans-2',trans-3'-dihydroxycyclopent-4'-enyl) derivatives of adenine and 3-deazaadenine: potent inhibitors of bovine liver S-adenosylhomocysteine hydrolase” (J Med Chem, 1988).)
